Results taken from patent publication US20220324880A1, “SMARCA INHIBITORS AND USES THEREOF” (Kymara Therapeutics, Inc., priority 2019, published 2022).

Target: T1, SMARCA2 (Homo sapiens, UniProt P51531)
Test: SMARCA2 BromoScan bromodomain binding assay (phage-displayed bromodomain, qPCR readout)
Parameters: made in house; host or cells: E. coli host derived from the BL21 strain (T7 phage lysate)
Settings: read-out: BromoScan Panel - SMARCA2: External Kd
Method: Bromodomain assays. T7 phage strains displaying bromodomains were grown in parallel in 24-well blocks in an E. coli host derived from the BL21 strain. E. coli were grown to log-phase and infected with T7 phage from a frozen stock (multiplicity of infection=0.4) and incubated with shaking at 32° C. until lysis (90-150 minutes). The lysates were centrifuged (5,000×g) and filtered (0.2 μm) to remove cell debris. Streptavidin-coated magnetic beads were treated with biotinylated small molecule or acetylated peptide ligands for 30 minutes at room temperature to generate affinity resins for bromodomain assays. […] Test compounds were prepared as 1000λ stocks in 100% DMSO. Kds were determined using an 11-point 3-fold compound dilution series with one DMSO control point. […] The compounds were then diluted directly into the assays such that the final concentration of DMSO was 0.09%. All reactions performed in polypropylene 384-well plates. Each was a final volume of 0.02 ml. […] The bromodomain concentration in the eluates was measured by qPCR. Compound Handling: An 11-point 3-fold serial dilution of each test compound was prepared in 100% DMSO at 1000× final test concentration. […] The compounds were then diluted directly into the assays such that the final concentration of DMSO was 0.09%. […] Binding constants (Kds) were calculated with a standard dose-response curve using the Hill equation. Curves were fitted using a non-linear least square fit with the Levenberg-Marquardt algorithm.
Target sequence in this assay (P51531 1378-1506 limits assumed): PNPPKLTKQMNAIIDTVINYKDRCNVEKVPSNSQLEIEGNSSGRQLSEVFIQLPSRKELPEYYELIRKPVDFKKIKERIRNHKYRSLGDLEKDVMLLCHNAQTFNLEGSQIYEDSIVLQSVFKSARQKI

SMILES | Kd [µM]
CC(c1ccccc1)n1cc(-c2cc(-c3cccn(C)c3=O)cnc2N)cn1 (centres unmarked) [I-1, 6′-Amino-1-methyl-5′-(1-(1-phenylethyl)-1H-pyrazol-4-yl)-[3,3′-bipyridin]-2(1H)-one] | > 1
Cn1cccc(-c2cnc(N)c(-c3cn[nH]c3)c2)c1=O [I-2, 3-[6-Amino-5-(1H-pyrazol-4-yl)-3-pyridyl]-1-methyl-pyridin-2-one] | > 1
O=c1c2c(O)cccc2ccn1Cc1cnn(Cc2ccccc2)c1 [I-3, 2-((1-benzyl-1H-pyrazol-4-yl)methyl)-8-hydroxyisoquinolin-1(2H)-one] | > 1
O=c1c2c(O)cccc2ccn1Cc1cn[nH]c1 [I-4, 2-((1H-pyrazol-4-yl)methyl)-8-hydroxyisoquinolin-1(2H)-one] | > 1
O=c1c2c(O)cccc2ccn1CC1CCN(c2ccccn2)C1 (centres unmarked) [I-5, 8-hydroxy-2-((1-(pyridin-2-yl)pyrrolidin-3-yl)methyl)isoquinolin-1(2H)-one] | > 1
CC(C)(C)OC(=O)N1CCCC1Cn1ccc2cccc(O)c2c1=O (centres unmarked) [I-6, Tert-butyl-2-((8-hydroxy-1-oxoisoquinolin-2(1H)-yl)methyl)pyrrolidine-1-carboxylate] | > 1
O=c1c2c(O)cccc2ccn1CC1CCCN1 (centres unmarked) [I-7, 8-hydroxy-2-(pyrrolidin-2-ylmethyl)isoquinolin-1(2H)-one] | > 1
CC(C)(C)OC(=O)N1CCC(Cn2ccc3cccc(O)c3c2=O)C1 (centres unmarked) [I-9, Tert-butyl 3-((8-hydroxy-1-oxoisoquinolin-2(1H)-yl)methyl)pyrrolidine-1-carboxylate] | > 1
O=c1c2c(O)cccc2ccn1CC1CCNC1 (centres unmarked) [I-10, 8-hydroxy-2-(pyrrolidin-3-ylmethyl)isoquinolin-1(2H)-one] | > 1
O=c1ncn(-c2ccccc2)c2cccc(Cl)c12 [I-11, 5-Chloro-1-phenylquinazolin-4(1H)-one] | > 1
Nc1ncc(-c2ncccn2)cc1C1CCNCC1 [I-13] | > 1
Nc1ncc(-c2ncccn2)cc1N1CCNCC1 [I-14, 3-(piperazin-1-yl)-5-(pyrimidin-2-yl)pyridin-2-amine] | > 1
Nc1ncc(-c2cccc(Cl)c2)cc1N1CCNCC1 [I-15, 5-(3-chlorophenyl)-3-(piperazin-1-yl)pyridin-2-amine] | > 1
O=C(NCC1CCN(c2ccccn2)CC1)c1ccccc1O [I-16, 2-Hydroxy-N-((1-(pyridin-2-yl)piperidin-4-yl)methyl)benzamide] | > 1
Nc1nnc(-c2cnccc2O)cc1N1CCNCC1 [I-17, 3-(6-Amino-5-(piperazin-1-yl)pyridazin-3-yl)pyridin-4-ol] | > 1
CCCCOc1ccc(N2CCN(c3cc(-c4ccccc4O)nnc3N)CC2)cc1 [I-18, 2-(6-Amino-5-(4-(4-butoxyphenyl)piperazin-1-yl)pyridazin-3-yl)phenol] | > 1
Oc1ccccc1-c1cc2cc[nH]c2nn1 [I-19, 2-(7H-Pyrrolo[2,3-c]pyridazin-3-yl)phenol] | < 0.1

SMILES | Kd [µM]
Oc1ccccc1-c1cc2c(C3CCNCC3)c[nH]c2nn1 [I-20, 2-(5-(Piperidin-4-yl)-7H-pyrrolo[2,3-c]pyridazin-3-yl)phenol] | < 0.1
O=C(Nc1ccc2cn[nH]c2c1)c1ccccc1O [I-21, 2-Hydroxy-N-(1H-indazol-6-yl)benzamide] | > 1
O=C(Nc1cc(C2CCNCC2)cc2[nH]ncc12)c1ccccc1O [I-22, 2-Hydroxy-N-(6-(piperidin-4-yl)-1H-indazol-4-yl)benzamide] | > 1
O=C(Nc1ccc2c(C3CCNCC3)n[nH]c2c1)c1ccccc1O [I-23, 2-Hydroxy-N-[3-(4-piperidyl)-1H-indazol-6-yl]benzamide] | > 1
c1ccc2c(c1)nnc1[nH]c(C3CCNCC3)cc12 [I-24, 2-(4-Piperidyl)-3H-pyrrolo [2,3-c]cinnoline] | 0.501 to 1
Nc1ncc2c(Cl)cccc2c1C#CC1CCNCC1 [I-27, 8-Chloro-4-(piperidin-4-ylethynyl)isoquinolin-3-amine] | > 1
Oc1ccccc1-c1cc(-c2ccc(CN3CCNCC3)cc2)[nH]n1 [I-28, 2-[5-[4-(piperazin-1-ylmethyl)phenyl]-1H-pyrazol-3-yl]phenol] | > 1
Oc1ccccc1-c1n[nH]c2ccccc12 [I-29, 2-(1H-indazol-3-yl)phenol] | > 1
Oc1ccccc1-c1n[nH]c2ccncc12 [I-30, 2-(1H-Pyrazolo[4,3-c]pyridin-3-yl)phenol] | > 1
Nc1nnc(-c2ccc(Cl)cc2O)cc1N1CCNCC1 [I-31, 2-(6-Amino-5-piperazin-1-yl-pyridazin-3-yl)-5-chloro-phenol] | > 1
Nc1nnc(-c2cccc(Cl)c2O)cc1N1CCNCC1 [I-32, 2-(6-Amino-5-(piperazin-1-yl)pyridazin-3-yl)-6-chlorophenol] | < 0.1
Nc1nnc(-c2cc(Cl)ccc2O)cc1N1CCNCC1 [I-33, 2-(6-Amino-5-piperazin-1-yl-pyridazin-3-yl)-4-chloro-phenol] | 0.1 to 0.5
Cc1ccc(O)c(-c2cc(N3CCNCC3)c(N)nn2)c1 [I-34, 2-(6-Amino-5-piperazin-1-yl-pyridazin-3-yl)-4-methyl-phenol] | > 1
Nc1nnc(-c2ccn[nH]2)cc1C1CCNCC1 [I-35, 4-(4-Piperidyl)-6-(1H-pyrazol-5-yl)pyridazin-3-amine] | > 1
COC(=O)C1=CC(=O)N2CCCN=C2S1 [I-37] | > 1
COc1ccc(C(NC(=O)c2cc(-c3ccccc3O)n[nH]2)C2CC2)cc1 (centres unmarked) [I-38] | > 1

Target: T1, SMARCA2
Test: SMARCA2 HTRF assay (His-tagged SMARCA2-17, anti-6His Tb cryptate)
Settings: read-out: SMARCA2 binding Human HTRF: Average IC50
Method: Sample handling: Prepared 1× Epigenetics Buffer according to manufacturer's instructions. Prepared 32 nM SMARCA2-17 (4X) with Epigenetics Buffer; Prepared 4× Tb working solution: dilute Mab Anti 6His Tb cryptate Gold in PPI-Terbium Detection buffer to 0.21 ng/l (100× dilution from stock). Prepared SMARCA2-mAb-Tb working solution by mixing equal volume of 32 nM SMARCA2 with Tb working solution. Started a half-hour timer. In a 96-well plate, prepared serial dilution of compound DMSO solutions. Placed 24 μl/well of Epigenetics Buffer to a second 96-well plate. Transferred 1 μl of the 100× compound DMSO solution to the second 96-well plate to make 4× compound working solution. Prepared 80 nM SMA-611-001H/SMA-788-001H (4×) with Epigenetics Buffer. Added 5 μl/well of SMA-611-001H into the 384-well plate. Added 5 μl/well of SMA-788-001H into the 384-well plate. Added 5 μl/well of 4× compound working solution into the 384-well plate, mix well. Added 10 µl/well of SMARCA2-mAb-Tb working solution into 384-well plate. Incubated the above mixtures at room temperature for 30 min. Data collected, processed and on EnVision. Calculated 520 nm/495 nm readouts ratio from raw data.
Target sequence in this assay (P51531 whole entry): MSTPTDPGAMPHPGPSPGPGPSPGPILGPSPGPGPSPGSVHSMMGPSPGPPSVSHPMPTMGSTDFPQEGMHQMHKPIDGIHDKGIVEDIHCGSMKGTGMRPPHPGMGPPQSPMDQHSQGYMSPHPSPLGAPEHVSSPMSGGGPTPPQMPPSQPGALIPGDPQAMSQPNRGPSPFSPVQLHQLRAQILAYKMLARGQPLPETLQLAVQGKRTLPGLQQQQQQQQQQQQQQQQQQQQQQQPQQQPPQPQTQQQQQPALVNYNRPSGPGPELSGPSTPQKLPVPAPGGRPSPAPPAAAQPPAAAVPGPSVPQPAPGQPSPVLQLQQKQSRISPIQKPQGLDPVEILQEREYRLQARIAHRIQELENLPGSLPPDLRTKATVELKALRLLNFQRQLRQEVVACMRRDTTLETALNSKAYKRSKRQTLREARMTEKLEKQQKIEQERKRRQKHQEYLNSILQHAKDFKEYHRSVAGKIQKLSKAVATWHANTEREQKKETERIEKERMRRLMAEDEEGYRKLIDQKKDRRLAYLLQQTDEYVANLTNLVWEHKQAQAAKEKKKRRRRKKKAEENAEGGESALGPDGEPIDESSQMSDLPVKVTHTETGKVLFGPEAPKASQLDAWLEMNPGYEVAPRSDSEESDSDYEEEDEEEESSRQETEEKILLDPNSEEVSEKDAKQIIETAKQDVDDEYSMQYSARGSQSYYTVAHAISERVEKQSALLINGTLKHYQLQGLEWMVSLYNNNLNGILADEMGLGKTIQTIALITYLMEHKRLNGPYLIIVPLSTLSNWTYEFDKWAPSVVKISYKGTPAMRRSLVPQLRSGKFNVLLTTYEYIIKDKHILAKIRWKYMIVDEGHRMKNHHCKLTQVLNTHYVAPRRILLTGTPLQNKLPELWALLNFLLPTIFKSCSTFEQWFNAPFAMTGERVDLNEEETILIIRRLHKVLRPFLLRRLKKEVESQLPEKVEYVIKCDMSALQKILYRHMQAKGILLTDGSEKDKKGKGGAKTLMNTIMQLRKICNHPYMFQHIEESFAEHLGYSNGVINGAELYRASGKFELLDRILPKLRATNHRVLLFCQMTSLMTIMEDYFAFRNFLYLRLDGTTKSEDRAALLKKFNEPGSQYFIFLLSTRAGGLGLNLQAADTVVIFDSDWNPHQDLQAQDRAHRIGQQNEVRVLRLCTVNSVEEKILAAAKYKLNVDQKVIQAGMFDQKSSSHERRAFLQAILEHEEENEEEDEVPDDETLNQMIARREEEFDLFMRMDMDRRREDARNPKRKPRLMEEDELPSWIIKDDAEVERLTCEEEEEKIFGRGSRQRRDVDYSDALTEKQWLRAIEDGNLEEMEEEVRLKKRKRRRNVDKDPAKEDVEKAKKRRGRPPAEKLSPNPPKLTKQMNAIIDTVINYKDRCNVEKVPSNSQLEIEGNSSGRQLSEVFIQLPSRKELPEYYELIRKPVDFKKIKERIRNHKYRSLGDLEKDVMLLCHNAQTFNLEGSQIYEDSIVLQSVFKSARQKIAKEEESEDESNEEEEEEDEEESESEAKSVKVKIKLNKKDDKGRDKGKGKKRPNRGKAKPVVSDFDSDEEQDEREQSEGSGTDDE

SMILES | IC50 [µM]
Oc1ccccc1-c1cc2cc[nH]c2nn1 [I-19, 2-(7H-Pyrrolo[2,3-c]pyridazin-3-yl)phenol] | 1 to 100
Nc1ncc2ccccc2c1C#CC1CCNCC1 [I-25, 4-(Piperidin-4-ylethynyl)isoquinolin-3-amine] | 101 to 500
